US10273267B2, “Beta-hairpin peptidomimetics as selective elastase inhibitors” (POLYPHOR AG, priority 2013, dated 2019)
*1 amine or outer side, *2 acyl side, *3 side chain or, on linkers, in order; H or OH if unused. Where a SMILES comes first, the peptide text is derived from it. [ ]: non-standard residue; d: D form. The star is where a group is joined. X2 = C[C@@H](O)[C@@H](CCC(=O)[*:2])N[*:1]; Oic = O=C(O)[C@@H]1C[C@@H]2CCCC[C@@H]2N1; Gly(octyl) = CCCCCCCC[C@H](N)C(=O)O; AllylGly = C=CC[C@H](N)C(=O)O; Octanoyl = CCCCCCCC(=O)*; Dab = NCC[C@H](N)C(=O)O; Dap = NC[C@H](N)C(=O)O

Experiments:
Format in all cases: biochemical
[1] = biological target: T1, human proteinase 3 (Homo sapiens, UniProt P24158); assay: Inhibition of human proteinase 3 (substrate Boc-Ala-Ala-Nva-SBzl); conditions: for hNE/hPr3 selectivity: ratio of hPr3 IC50 to hNE IC50; for IC50: substrate Boc-Ala-Ala-Nva-SBzl 1 mM, enzyme 10 nM, 37° C., pH7.4, read-out: Human proteinase 3 (hPr3) IC50
T1 construct: purchased Elastin Products Company, USA
T1 sequence (P24158 28-248): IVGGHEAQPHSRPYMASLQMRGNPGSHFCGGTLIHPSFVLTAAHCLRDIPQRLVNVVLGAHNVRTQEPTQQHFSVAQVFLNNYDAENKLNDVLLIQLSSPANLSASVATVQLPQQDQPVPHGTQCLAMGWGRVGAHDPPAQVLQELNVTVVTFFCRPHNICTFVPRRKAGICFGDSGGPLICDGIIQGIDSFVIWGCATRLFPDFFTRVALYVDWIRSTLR
Description: 2.4 Inhibition of Human Proteinase 3
The inactivation of human proteinase 3 (Elastin Products Company, USA) by the peptides of the invention using synthetic tripeptidic substrate Boc-Ala-Ala-Nva-SBzl (Elastin Products Company, USA) was determined as follows:
(§1) The above substrate (1 mM), 4,4′-dithiodipyridine (250 μM) and human proteinase 3 (10 nM) were incubated at 37° C. with serial dilutions of the peptides (0.5% DMSO final) in assay buffer (50 mM Tris, pH7.4, 150 mM NaCl, 0.01% Tween20). The reaction process was followed by monitoring the change in absorbance at 340 nm for 30 minutes. Control assays with the same assay set-up as above, but without peptide, ran linearly. The dose-response data were fitted to the 4-parameter Hill equation providing the IC50 value using Graphpad (Prism 5).

[2] = biological target: T2, porcine pancreatic elastase (Sus scrofa, UniProt P00772); assay: Inhibition of porcine pancreatic elastase (hydrolysis of MeOSuc-AAA-pNA); conditions: for hNE/PPE selectivity: ratio of PPE IC50 to hNE IC50; for IC50: substrate MeOSuc-AAA-pNA 1 mM, enzyme 15 nM, 37° C., pH8, read-out: Porcine pancreatic elastase (PPE) IC50
T2 construct: purchased Sigma, USA
T2 sequence (P00772 27-266): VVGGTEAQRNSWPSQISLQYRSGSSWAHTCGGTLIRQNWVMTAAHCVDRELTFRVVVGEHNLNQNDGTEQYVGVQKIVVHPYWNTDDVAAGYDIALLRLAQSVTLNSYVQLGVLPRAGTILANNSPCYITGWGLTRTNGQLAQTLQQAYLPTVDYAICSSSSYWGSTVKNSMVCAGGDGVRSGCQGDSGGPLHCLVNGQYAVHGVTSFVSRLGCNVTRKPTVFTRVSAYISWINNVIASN
Description: 2.3 Inhibition of Porcine Pancreatic Elastase
The ability of the peptides of the invention to inhibit the hydrolysis activity of porcine pancreatic elastase (Sigma, USA) using the synthetic tripeptidic substrate MeOSuc-AAA-pNA (Bachem, Switzerland) was determined as follows:
as §1, with “mM)” for “mM), 4,4′-dithiodipyridine (250 μM)”, “porcine pancreatic elastase (15” for “proteinase 3 (10”, “pH8, 100” for “pH7.4, 150”, “release of pNA” for “reaction process”, “405” for “340”

[3] = biological target: T3, human neutrophil elastase (Homo sapiens, UniProt P08246); assay: Inhibition of human neutrophil elastase (hydrolysis of MeOSuc-AAPV-pNA); conditions: substrate MeOSuc-AAPV-pNA 0.3 mM, enzyme 10 nM, 37° C., pH 8; read-out: Human neutrophil elastase (hNE) IC50
T3 construct: purchased Serva Electrophoresis, Germany
T3 sequence (P08246 30-267): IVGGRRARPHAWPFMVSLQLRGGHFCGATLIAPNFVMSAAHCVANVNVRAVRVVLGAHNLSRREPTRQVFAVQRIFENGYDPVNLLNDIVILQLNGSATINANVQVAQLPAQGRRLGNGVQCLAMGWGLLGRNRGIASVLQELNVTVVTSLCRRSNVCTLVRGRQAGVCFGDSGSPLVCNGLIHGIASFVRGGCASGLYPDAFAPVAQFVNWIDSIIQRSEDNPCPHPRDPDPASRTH
Description: 2.2 Inhibition of Human Neutrophil Elastase
The ability of the peptides of the invention to inhibit the hydrolysis activity of human neutrophil elastase (Serva Electrophoresis, Germany) using the synthetic tetrapeptidic substrate MeOSuc-AAPV-pNA (Bachem, Switzerland) was determined as follows:
as §1, with “(0.3 mM)” for “(1 mM), 4,4′-dithiodipyridine (250 μM)”, “neutrophil elastase” for “proteinase 3”, “(1%” for “(0.5%”, “pH 8, 300” for “pH7.4, 150”, “release of pNA” for “reaction process”, “405” for “340”

Row | hNE/hPr3 selectivity [1] | IC50 [1] | hNE/PPE selectivity [2] | IC50 [2] | IC50 [3] | Compound
1 | 1835 | 21.1 µM | 4217 | 48.5 µM | 0.0115 µM | CCCCCCCC[C@@H]1NC(=O)[C@@H]2CCCN2C(=O)[C@H]2CCCN2C(=O)CC[C@H]([C@@H](C)O)NC(=O)[C@H](CCCCN)NC(=O)[C@H](CCC(N)=O)NC(=O)[C@@H]2CCCN2C(=O)[C@@H]2CCCN2C(=O)[C@H]([C@@H](C)CC)NC(=O)[C@H](CO)NC(=O)[C@H](C)NC(=O)[C@H]([C@@H](C)O)NC(=O)[C@H](CCC(=O)O)NC1=O [Example 11, Cyclo(-OctGly-Glu-Thr-Ala-Ser-Ile-Pro-Pro-Gln-Lys-[H-γ^4-DiHThr-OH]-^DPro-Pro-)] (cyclo([Gly(octyl)]ETASIPPQK[X2][dP]P))
2 | >6579 | > 100 µM | >6579 | > 100 µM | 0.0152 µM | CCCCCCCC[C@@H]1NC(=O)[C@H]2CCCN2C(=O)[C@H]2CCCN2C(=O)[C@H]([C@@H](C)O)NC(=O)[C@H](CCCCN)NC(=O)[C@H](CCC(N)=O)NC(=O)[C@@H]2CCCN2C(=O)[C@@H]2CCCN2C(=O)[C@H]([C@@H](C)CC)NC(=O)[C@H](CO)NC(=O)[C@H](C)NC(=O)[C@H]([C@@H](C)O)NC(=O)[C@H](CCC(=O)O)NC1=O [Example 12, Cyclo(-OctGly-Glu-Thr-Ala-Ser-Ile-Pro-Pro-GI n-Lys-Thr-^DPro-^DPro-)] (cyclo([Gly(octyl)]ETASIPPQKT[dP][dP]))
3 | >9901 | > 100 µM | 2119 | 21.4 µM | 0.0101 µM | CCCCCCCC[C@@H]1NC(=O)[C@@H]2CCCN2C(=O)[C@H]2CCCN2C(=O)[C@H]([C@@H](C)O)NC(=O)[C@H](CCCCN)NC(=O)[C@H](CCC(N)=O)NC(=O)[C@@H]2CCCN2C(=O)[C@@H]2CCCN2C(=O)[C@H]([C@@H](C)CC)NC(=O)[C@H](CO)NC(=O)[C@H](C)NC(=O)[C@H]([C@@H](C)O)NC(=O)[C@H](Cc2ccccc2)NC1=O [Example 13, Cyclo(-OctGly-Phe-Thr-Ala-Ser-Ile-Pro-Pro-Gln-Lys-Thr-^DPro-Pro-)] (cyclo([Gly(octyl)]FTASIPPQKT[dP]P))
4 | 1733 | 26 µM | 367 | 5.5 µM | 0.015 µM | CCCCCCCC[C@@H]1NC(=O)[C@@H]2CCCN2C(=O)[C@H]2CCCN2C(=O)[C@H](Cc2ccc(O)cc2)NC(=O)[C@H](CCCCN)NC(=O)[C@H](CCC(N)=O)NC(=O)[C@@H]2CCCN2C(=O)[C@@H]2CCCN2C(=O)[C@H]([C@@H](C)CC)NC(=O)[C@H](CO)NC(=O)[C@H](C)NC(=O)[C@H]([C@@H](C)O)NC(=O)[C@H](CNC(=O)[C@@H](N)Cc2ccccc2)NC1=O [Example 14, Cyclo(-OctGly-Dap(Phe)-Thr-Ala-Ser-Ile-Pro-Pro-Gln-Lys-Tyr-^DPro-Pro-)] (cyclo([Gly(octyl)][Dap](Phe)TASIPPQKY[dP]P))
5 | 2366 | 45.2 µM | 4859 | 92.8 µM | 0.0191 µM | CCCCCCCC(=O)NCC[C@@H]1NC(=O)[C@@H]2CCCN2C(=O)[C@H]2CCCN2C(=O)[C@H]([C@@H](C)O)NC(=O)[C@H](CCCCN)NC(=O)[C@H](CCC(N)=O)NC(=O)[C@@H]2CCCN2C(=O)[C@@H]2CCCN2C(=O)[C@H]([C@@H](C)CC)NC(=O)[C@H](CO)NC(=O)[C@H](C)NC(=O)[C@H]([C@@H](C)O)NC(=O)[C@H](CCC(=O)O)NC1=O [Example 15, Cyclo(-Dab(Octanoyl)-Glu-Thr-Ala-Ser-Ile-Pro-Pro-Gln-Lys-Thr-^DPro-Pro-)] (cyclo([Dab](Octanoyl)ETASIPPQKT[dP]P))
6 | >6667 | > 100 µM | >6667 | > 100 µM | 0.015 µM | CC[C@H](C)[C@@H]1NC(=O)[C@H](CO)NC(=O)[C@H](C)NC(=O)[C@H]([C@@H](C)O)NC(=O)[C@H](CCC(=O)O)NC(=O)[C@H](CCCNC(=N)N)NC(=O)[C@@H]2CCCN2C(=O)[C@H]2CCCN2C(=O)[C@H]([C@@H](C)O)NC(=O)[C@H](CCCCN)NC(=O)[C@H](CCC(N)=O)NC(=O)[C@@H]2C[C@@H]3CCCC[C@@H]3N2C(=O)[C@@H]2CCCN2C1=O [Example 16, Cyclo(-Arg-Glu-Thr-Ala-Ser-Ile-Pro-Oic-Gln-Lys-Thr-^DPro-Pro-)] (cyclo(RETASIP[Oic]QKT[dP]P))
7 | 4013 | 60.2 µM | 2080 | 31.2 µM | 0.015 µM | C=CC[C@@H]1NC(=O)[C@H]([C@@H](C)O)NC(=O)[C@H](CCC(=O)O)NC(=O)[C@H](CCC(=O)N[C@@H](Cc2ccccc2)C(=O)O)NC(=O)[C@@H]2CCCN2C(=O)[C@H]2CCCN2C(=O)[C@H](Cc2ccc(O)cc2)NC(=O)[C@H](CCCCN)NC(=O)[C@H](CCC(N)=O)NC(=O)[C@@H]2CCCN2C(=O)[C@@H]2CCCN2C(=O)[C@H]([C@@H](C)CC)NC(=O)[C@H](CO)NC1=O [Example 17, Cyclo(-Glu(Phe)-Glu-Thr-AllylGly-Ser-Ile-Pro-Pro-Gln-Lys-Tyr-^DPro-Pro-)] (cyclo(E(Phe)ET[AllylGly]SIPPQKY[dP]P))
8 | 2906 | 46.2 µM | 4660 | 74.1 µM | 0.0159 µM | CC[C@H](C)[C@@H]1NC(=O)[C@H](CO)NC(=O)[C@H](C)NC(=O)[C@H]([C@@H](C)O)NC(=O)[C@H](CCC(=O)O)NC(=O)[C@H](CCC(=O)N[C@@H](Cc2ccccc2)C(=O)O)NC(=O)[C@@H]2CCCN2C(=O)[C@H]2CCCN2C(=O)[C@H](Cc2ccc(O)cc2)NC(=O)[C@H](CCCCN)NC(=O)[C@H](CCC(N)=O)NC(=O)[C@@H]2CCCN2C(=O)[C@@H]2CCCN2C1=O [Example 18, Cyclo(-Glu(Phe)-Glu-Thr-Ala-Ser-Ile-Pro-Pro-Gln-Lys-Tyr-^DPro-Pro-)] (cyclo(E(Phe)ETASIPPQKY[dP]P))
9 | >3030 | > 100 µM | >3030 | > 100 µM | 0.033 µM | C=CC[C@@H]1NC(=O)[C@H]([C@@H](C)O)NC(=O)[C@H](CCC(=O)O)NC(=O)[C@H](CCC(=O)N[C@@H](Cc2ccccc2)C(=O)O)NC(=O)[C@@H]2CCCN2C(=O)[C@H]2CCCN2C(=O)[C@H]([C@@H](C)O)NC(=O)[C@H](CCCCN)NC(=O)[C@H](CCC(N)=O)NC(=O)[C@@H]2CCCN2C(=O)[C@@H]2CCCN2C(=O)[C@H]([C@@H](C)CC)NC(=O)[C@H](CO)NC1=O [Example 19, Cyclo(-Glu(Phe)-Glu-Thr-AllylGly-Ser-Ile-Pro-Pro-Gln-Lys-Thr-^DPro-Pro-)] (cyclo(E(Phe)ET[AllylGly]SIPPQKT[dP]P))
10 | 669 | 8.9 µM | 2128 | 28.3 µM | 0.0133 µM | CCCCCCCC[C@@H]1NC(=O)[C@H](C)NC(=O)[C@@H](C)NC(=O)[C@H]([C@@H](C)O)NC(=O)[C@H](CCCCN)NC(=O)[C@H](CCC(N)=O)NC(=O)[C@@H]2CCCN2C(=O)[C@@H]2CCCN2C(=O)[C@H]([C@@H](C)CC)NC(=O)[C@H](CO)NC(=O)[C@H](C)NC(=O)[C@H]([C@@H](C)O)NC(=O)[C@H](CCC(=O)O)NC1=O [Example 20, Cyclo(-OctGly-Glu-Thr-Ala-Ser-Ile-Pro-Pro-GI n-Lys-Thr-^DAla-Ala-)] (cyclo([Gly(octyl)]ETASIPPQKT[dA]A))
